Results on seven compounds are retold here after patent US20040230057A1, “Dye for optical recording medium” (priority 2003, published 2004).

Series [1] is described as follows: UV-visible absorption spectroscopy. The class given is physicochemical. The conditions noted are these: for absorption wavelength: UV-visible absorption spectrum; for Maximum Absorption Wavelength: methanol. An excerpt: (§1) The results of the thermal gravametric analysis and the ultraviolent-visible absorption spectroscopy of the optical recording medium dyes obtained in the above experiment 1 to experiment 8 are summarized in Table 1. The thermal gravametric analysis and the ultraviolent-visible absorption spectroscopy detect, respectively, the thermal breakdown temperature (the temperature of a 5% thermal weight loss) and the optical property (the largest absorption wavelength, absorption coefficient of the solution). […] Further, the thermal breakdown temperatures are above 250 degrees Celsius. Accordingly, the optical recording medium dyes of the present invention comprises a broad wavelength range and has favorable thermal stability and solubility.

A short description of series [2]: thermal gravimetric analysis. The conditions noted are these: for Thermal Breakdown Temperature: temperature of a 5% thermal weight loss; for temperature of sudden weight loss (thermal breakdown temperature): thermal gravimetric analysis. The class given is physicochemical.
Excerpt: as §1

As to `CCCCN1C(=CC=Cc2ccc3ccccc3[n+]2CCCC)C(C)(C)c2cc(Cl)ccc21` [Experiment 1], in series [1], the absorption wavelength came out at 561.8 nm and the “Maximum Absorption Wavelength” value amounted to 561.8 nm. In series [2], the “Thermal Breakdown Temperature” value was 280.2 °C and the “temperature of sudden weight loss (thermal breakdown temperature)” value (from here on “temperature of sudden weight loss”) is listed as “about 280.2 degrees Celsius”.

As for `CCCCN1C(=CC=Cc2ccc3ccccc3[n+]2CCCC)C(C)(C)c2c1ccc1ccccc21` [Experiment 2], in series [1], the absorption wavelength came to 583.0 nm and the “Maximum Absorption Wavelength” value came out at 583.0 nm. Further, in series [2], the “Thermal Breakdown Temperature” value is 268.6 °C and the “temperature of sudden weight loss” value is “about 268.6 degrees Celsius”.

Take `CCCCN1C(=CC=Cc2ccc3ccccc3[n+]2CCCC)C(C)(C)c2c1ccc1ccccc21` [Experiment 3]: in series [1], the absorption wavelength is reported as 583.0 nm and the “Maximum Absorption Wavelength” value stood at 583.0 nm. Also, in series [2], the “Thermal Breakdown Temperature” value is 274.2 °C and the “temperature of sudden weight loss” value is “about 274.2 degrees Celsius”.

Take `CCCC[n+]1c(C=CC=C2N(C)c3ccc([N+](=O)[O-])cc3C2(C)C)ccc2ccccc21` [Experiment 4]: in series [1], the absorption wavelength was 548.2 nm and the “Maximum Absorption Wavelength” value worked out at 548.2 nm. Further, in series [2], the “Thermal Breakdown Temperature” value came to 309.5 °C and the “temperature of sudden weight loss” value is listed as “about 309.5 degrees Celsius”.

`CCCCN1C(=CC=Cc2cc[n+](CC)c3ccccc23)C(C)(C)c2cc(Cl)ccc21` [Experiment 5]: in series [1], the absorption wavelength is given as 598.4 nm and the “Maximum Absorption Wavelength” value is given as 598.4 nm. Moreover, in series [2], the “Thermal Breakdown Temperature” value came to 266.3 °C and the “temperature of sudden weight loss” value is “about 266.3 degrees Celsius”.

Turning to `CC[n+]1ccc(C=CC=C2N(C)c3ccc([N+](=O)[O-])cc3C2(C)C)c2ccccc21` [Experiment 6], in series [1], the absorption wavelength came to 570.0 nm and the “Maximum Absorption Wavelength” value worked out at 570.0 nm. In series [2], the “Thermal Breakdown Temperature” value is 302.7 °C and the “temperature of sudden weight loss” value was “about 302.7 degrees Celsius”.

With `CCCCN1C(=CC=Cc2cc[n+](CC)c3ccccc23)C(C)(C)c2c1ccc1ccccc21` [Experiment 7], in series [1], the absorption wavelength is on record as 625 nm and the “Maximum Absorption Wavelength” value is reported as 625.0 nm. Besides, in series [2], the “Thermal Breakdown Temperature” value was 270.7 °C and the “temperature of sudden weight loss” value is on record as “about 270.7 degrees Celsius”.
